Assay results reported in patent publication US11464749B2, “Bismuth-thiol compositions and methods of use” (Microbion Corporation, priority 2018, dated 2022).
≈ marks a conversion by molar mass, not a printed value. Where two headings read alike, the source gives them in different places.

Key:
[1] = Particle size distribution of BisEDT samples vs processing conditions (Table 111); assay type: physicochemical; details: BisEDT sample
Protocol: It was observed that careful control of the reaction temperature and the rate of 1,2 ethanedithiol addition had pronounced impact on the BisEDT particle size distribution.
To a 1-L jacketed reactor was charged USP water (480 mL, 48 vol), followed by 70% HNO3 (34 mL, 3.4 vol). A solution of bismuth subnitrate (10 g, 6.84 mmols) in water (43 mL, 4.3 vol) and 70% HNO3 (14 mL, 1.4 vol) was added at 20° C. The reaction mixture was cooled to 15° C. for addition of 95% Ethanol. The 95% ethanol (180 mL, 18 vol) was then added slowly. (Ethanol addition is exothermic, temperature reached 22° C.). The temperature was then adjusted back to 20° C. […] The reaction was stirred at 20° C. overnight. The reaction mixture was filtered through polypropylene cloth and washed with 95% ethanol (45 mL, 4.5 vol). The wet cake was charged back to the reactor and slurried in 95% ethanol (380 mL, 38 vol) for two hours at 20° C. The suspension was then filtered (same cloth) and washed with 95% ethanol (30 mL, 3 vol). The wet cake was again slurried in 95% EtOH (170 mL, 17 vol) at 20° C., filtered (same cloth), and washed with 95% ethanol (30 mL, 3 vol). The wet cake was then slurried in acetone (170 mL, 17 vol) at 20° C. overnight, followed by filtration (same cloth) and acetone wash (20 mL, 2 vol). The acetone (170 ml, 17 vol) treatment was repeated on the solids and stirred for 2 hours. The suspension was filtered (same cloth) and washed with acetone (30 mL, 3 vol) and died at 45° C. and dried at 45° C. (18 hours) to provide canary yellow solid (10.81 g 91.0%).
Representative synthesis of BisEDT at 15° C. with 1 hour addition of thiol via syringe pump, and polypropylene cloth for filtration: The synthesis BisEDT was performed on 10-g scale, temperature profile was studied with data logger. Ethane dithiol was added at 15° C. over 1 hour via syringe pump and the filtration was performed using PP filter cloth. To a 1-L jacketed reactor was charged USP water (480 mL, 48 vol) and cooled to 15° C., followed by 70% HNO3 (34 mL, 3.4 vol). A solution of bismuth subnitrate (10 g, […]) in water (43 mL, 4.3 vol) and 70% HNO3 (14 mL, 1.4 vol) was added at the same temperature. The 95% ethanol (180 mL, 18 vol) was then added slowly. […] It was then allowed to cool to 15° C. This was followed by dropwise addition of 1,2 ethanedithiol (4.3 mL, […] in 95% ethanol in 94 mL, 9.4 vol) over an hour with the batch temperature at 15° C. The reaction was allowed to stir at 15° C. overnight. The reaction mixture was filtered through polypropylene cloth and washed with 95% ethanol (45 mL, 4.5 vol). The wet cake was charged back to the reactor and slurried in 95% ethanol (380 mL, 38 vol) for two hours at 20° C. The suspension was then filtered (same cloth) and washed with 95% ethanol (30 mL, 3 vol). The wet cake was again slurried in 95% EtOH (170 mL, 17 vol) at 20° C., filtered (same cloth), and washed with 95% ethanol (30 mL, 3 vol). The wet cake was then slurried in acetone (170 mL, 17 vol) at 20° C. overnight, followed by filtration (same cloth) and acetone wash (20 mL, 2 vol). The acetone (170 ml, 17 vol) treatment was repeated on the solids and stirred for 2 hours. The suspension was filtered (same cloth) and washed with acetone (30 mL, 3 vol) and died at 45° C. and dried at 45° C. (18 hours) to provide canary yellow solid (10.43 g 87.8%).

[2] = tested on: vancomycin-intermediate Staphylococcus aureus (VISA); assay: Broth microdilution MIC (Example 12)

SMILES	D (10) [1] [μm]	D (50) [1] [μm]	D (90) [1] [μm]	D [4,3] [1] [μm]	other results
C1C[S][Bi]([S]CC[S][Bi]2[S]CC[S]2)[S]1.SCCS [Sample 3]	0.59	1.9	4.5	2.3	–
C1C[S][Bi]([S]CC[S][Bi]2[S]CC[S]2)[S]1 [Sample 14]	0.36	1.0	2.1	1.2	–
C1C[S][Bi]([S]CC[S][Bi]2[S]CC[S]2)[S]1.SCCS [Sample 1]	0.80	2.4	5.9	2.9	–
C1C[S][Bi]([S]CC[S][Bi]2[S]CC[S]2)[S]1 [Sample 8]	0.36	1.0	1.8	1.0	–
C1C[S][Bi]([S]CC[S][Bi]2[S]CC[S]2)[S]1 [Sample 7]	0.39	1.3	1.6	1.4	–
CCCCCCCCCC(=O)NC(Cc1c[nH]c2ccccc12)C(=O)NC(CC(N)=O)C(=O)NC(CC(=O)O)C(=O)NC1C(=O)NCC(=O)NC(CCCN)C(=O)NC(CC(=O)O)C(=O)NC(C)C(=O)NC(CC(=O)O)C(=O)NCC(=O)NC(CO)C(=O)NC(C(C)CC(=O)O)C(=O)NC(CC(=O)c2ccccc2N)C(=O)OC1C (stereo not shown) [DAP]	–	–	–	–	MIC ([2]; S. aureus NRS 1 (hVISA)): 1 µg/mL (≈ 0.617 µM); MIC ([2]; S. aureus NRS 2): 0.25 µg/mL (≈ 0.154 µM); MIC ([2]; S. aureus NRS 3): 1 µg/mL (≈ 0.617 µM); MIC ([2]; S. aureus NRS 4): 0.5 µg/mL (≈ 0.309 µM); MIC ([2]; S. aureus NRS 13): 2 µg/mL (≈ 1.23 µM); MIC ([2]; S. aureus NRS 18): 0.5 µg/mL (≈ 0.309 µM); MIC ([2]; S. aureus NRS 22): 2 µg/mL (≈ 1.23 µM); MIC ([2]; S. aureus NRS 24 (hVISA)): 0.5 µg/mL (≈ 0.309 µM); MIC ([2]; S. aureus NRS 27): 0.25 µg/mL (≈ 0.154 µM)
CC(=O)NC[C@H]1CN(c2ccc(N3CCOCC3)c(F)c2)C(=O)O1 [linezolid, reference compound]	–	–	–	–	MIC ([2]; Staphylococcus aureus, VISA, read-out: MIC values): ≤ 4 µg/mL
C1C[S][Bi]([S]CC[S][Bi]2[S]CC[S]2)[S]1 [Sample 10]	0.36	0.88	1.7	0.97	–
C1C[S][Bi]([S]CC[S][Bi]2[S]CC[S]2)[S]1 [Sample 13]	0.36	0.98	2.1	1.2	–
CC(=O)NC[C@H]1CN(c2ccc(N3CCOCC3)c(F)c2)C(=O)O1 [LZD]	–	–	–	–	MIC ([2]; S. aureus NRS 1 (hVISA)): 1 µg/mL (≈ 2.96 µM); MIC ([2]; S. aureus NRS 2): 4 µg/mL (≈ 11.9 µM); MIC ([2]; S. aureus NRS 3): 1 µg/mL (≈ 2.96 µM); MIC ([2]; S. aureus NRS 4): 1 µg/mL (≈ 2.96 µM); MIC ([2]; S. aureus NRS 13): 2 µg/mL (≈ 5.93 µM); MIC ([2]; S. aureus NRS 18): 1 µg/mL (≈ 2.96 µM); MIC ([2]; S. aureus NRS 22): 1 µg/mL (≈ 2.96 µM); MIC ([2]; S. aureus NRS 24 (hVISA)): 2 µg/mL (≈ 5.93 µM); MIC ([2]; S. aureus NRS 27): 2 µg/mL (≈ 5.93 µM)
C1C[S][Bi]([S]CC[S][Bi]2[S]CC[S]2)[S]1 [Sample 12]	0.37	1.2	2.4	1.3	–
C1C[S][Bi]([S]CC[S][Bi]2[S]CC[S]2)[S]1 [Sample 2]	0.58	1.7	3.9	2.0	–
CN[C@H](CC(C)C)C(=O)N[C@H]1C(=O)N[C@@H](CC(N)=O)C(=O)N[C@H]2C(=O)N[C@H]3C(=O)N[C@H](C(=O)N[C@H](C(=O)O)c4cc(O)cc(O)c4-c4cc3ccc4O)[C@H](O)c3ccc(c(Cl)c3)Oc3cc2cc(c3O[C@@H]2O[C@H](CO)[C@@H](O)[C@H](O)[C@H]2O[C@H]2C[C@](C)(N)[C@H](O)[C@H](C)O2)Oc2ccc(cc2Cl)[C@H]1O [VAN]	–	–	–	–	MIC ([2]; S. aureus NRS 1 (hVISA)): 4 µg/mL (≈ 2.76 µM); MIC ([2]; S. aureus NRS 2): 0.5 µg/mL (≈ 0.345 µM); MIC ([2]; S. aureus NRS 3): 8 µg/mL (≈ 5.52 µM); MIC ([2]; S. aureus NRS 4): 4 µg/mL (≈ 2.76 µM); MIC ([2]; S. aureus NRS 13): 2 µg/mL (≈ 1.38 µM); MIC ([2]; S. aureus NRS 18): 4 µg/mL (≈ 2.76 µM); MIC ([2]; S. aureus NRS 22): 4 µg/mL (≈ 2.76 µM); MIC ([2]; S. aureus NRS 24 (hVISA)): 2 µg/mL (≈ 1.38 µM); MIC ([2]; S. aureus NRS 27): 2 µg/mL (≈ 1.38 µM)
C1C[S][Bi]([S]CC[S][Bi]2[S]CC[S]2)[S]1 [Sample 6]	0.34	0.87	1.8	0.98	–
C1C[S][Bi]([S]CC[S][Bi]2[S]CC[S]2)[S]1 [Sample 15]	0.32	0.72	1.6	0.86	–
CCC[C@@H]1C[C@@H](C(=O)N[C@@H]([C@H]2O[C@H](SC)[C@H](O)[C@@H](O)[C@H]2O)[C@H](C)Cl)N(C)C1 [CLI]	–	–	–	–	MIC ([2]; S. aureus NRS 1 (hVISA)): >8 µg/mL; MIC ([2]; S. aureus NRS 2): >8 µg/mL; MIC ([2]; S. aureus NRS 3): >8 µg/mL; MIC ([2]; S. aureus NRS 4): >8 µg/mL; MIC ([2]; S. aureus NRS 13): 0.06 µg/mL (≈ 0.141 µM); MIC ([2]; S. aureus NRS 18): >8 µg/mL; MIC ([2]; S. aureus NRS 22): >8 µg/mL; MIC ([2]; S. aureus NRS 24 (hVISA)): >8 µg/mL; MIC ([2]; S. aureus NRS 27): >8 µg/mL
C1C[S][Bi]([S]CC[S][Bi]2[S]CC[S]2)[S]1 [Sample 9]	0.67	1.0	1.9	1.1	–
C1C[S][Bi]([S]CC[S][Bi]2[S]CC[S]2)[S]1 [Sample 4]	0.44	1.48	3.1	1.7	–
C1C[S][Bi]([S]CC[S][Bi]2[S]CC[S]2)[S]1 [Sample 11]	0.38	1.2	2.4	1.4	–
C1C[S][Bi]([S]CC[S][Bi]2[S]CC[S]2)[S]1 [Sample 5]	0.33	0.72	1.6	0.86	–
